Measurements from US12643887B2, “Heterocyclic derivatives with cardiomyocyte proliferation activity for treatment of heart diseases” (Tongji University, priority 2019, dated 2026).

Assays:
Type in all cases: biochemical
human CLK1 = target: T1, human CLK1 (Homo sapiens, UniProt P49759); experiment: CLK1 enzyme assay (ADP-Glo); conditions: ADP-Glo, ATP 10 μM; read-out: CLK1 IC50
T1 construct: Recombinant human CLK1 (129-end); GST (N); purchased SignalChem C57-11G; host or cells: Sf9 insect cells
Method: The ability of compounds to inhibit human CLK1 kinase activities was determined using a commercially available ADP-Glo™ Kinase Assay kit (Promega, Cat #V9102) according to the manufacturer's protocol.
(§1) Recombinant human CLK1 (129-end) (expressed in Sf9 insect cells with an N-terminal GST tag) was purchased from SignalChem (Cat #C57-11G). Recombinant full length human MBP (expressed in E. Coli cells with an N-terminal GST tag.) was purchased from SignalChem (Cat #M42-54G). This assay, run in a 384-well plate format, is a generic method for measuring kinase activities using an ADP-Glo Kinase Assay Kit. The basic assay procedure involves two steps: (1) Enzymatic step: inhibitors are incubated with the kinase and then ATP (included in the ADP-Glo Kinase Assay Kit) and the MBP protein are added to start the enzymatic reaction; (2) Detection step: after the kinase reaction, first ADP-Glo™ Reagent is added to terminate the kinase reaction and deplete the remaining ATP. Second, the Kinase Detection Reagent is added to simultaneously convert ADP to ATP and allow the newly synthesized ATP to be measured using a luciferase/luciferin reaction. The light generated is measured using a luminometer.
(§2) Briefly, CLK1 (16 nM) in the enzymatic buffer solutions (40 mM Tris, pH 7.5, 20 mM MgCl2, 0.1 mg/ml BSA, 50 μM DTT) were mixed with various concentrations of inhibitors (dissolved in 100% DMSO). These solutions were incubated for 30 minutes at 25° C., and subsequently a mixture of substrate peptide and ATP was added with the final peptide and ATP concentrations at 2 μM and 10 μM, respectively. The final reaction mixture of enzyme-substrate-ATP-compound was incubated for 60 minutes at 25° C.
(§3) Afterwards ADP-Glo™ Reagent was added and the mixture was incubated at 25° C. for 60 minutes. Then Kinase Detection Reagent was added and the final mixture was incubated at 25° C. for 60 minutes. The luminescence signal of the final solution was measured on an Envision instrument (PerkinElmer). The percent (%) inhibition at each concentration of a compound is calculated relative to the luminescence signal in the Max and Min control wells contained within each assay plate. […] The concentrations and percent inhibition values for a test compound are plotted and the concentration of the compound required to achieve 50% inhibition (IC50) is determined with a four-parameter logistic dose response equation.

human HIPK1 = target: T2, human HIPK1 (Homo sapiens, UniProt Q86Z02); experiment: HIPK1 enzyme assay (ADP-Glo); conditions: ADP-Glo, ATP 5 μM; read-out: HIPK1 IC50
T2 construct: Recombinant human HIPK1 (156-555); GST (N); purchased SignalChem H03-11G; host or cells: Sf9 insect cells
Method: The ability of compounds to inhibit human HIPK1 kinase activities was determined using a commercially available ADP-Glo™ Kinase Assay kit (Promega, Cat #V9102) according to the manufacturer's protocol.
as §1, with “HIPK1 (156-555)” for “CLK1 (129-end)”, “#H03-11G).” for “#C57-11G).”, “tag)” for “tag.)”
as §2, with “Briefly, HIPK1 (4” for “Briefly, CLK1 (16”, “at 0.05 mg/ml” for “at 2 μM”, “and 5” for “and 10”, “for 90” for “for 60”
Afterwards ADP-Glo™ Reagent was added and the mixture was incubated at 25° C. for 60 minutes. Then Kinase Detection Reagent was added, and the final mixture was incubated at 25° C. for 60 minutes. The luminescence signal of the final solution was measured on an Envision instrument (PerkinElmer). The percent (%) inhibition at each concentration of a compound is calculated relative to the luminescence signal in the Max and Min control wells contained within each assay plate. […] The concentrations and percent inhibition values for a test compound are plotted and the concentration of the compound required to achieve 50% inhibition (IC50) is determined with a four-parameter logistic dose response equation.

human DYRK1A = target: T3, human DYRK1A (Homo sapiens, UniProt Q13627); experiment: DYRK1A enzyme assay (ADP-Glo); conditions: ADP-Glo, ATP 60 μM; read-out: DYRK1A IC50
T3 construct: Recombinant full-length DYRK1A (expressed in E. Coli cells with an N-terminal GST tag); GST (N); purchased SignalChem D09-10G; host or cells: E. coli
Method: The ability of compounds to inhibit human DYRK1A kinase activities was determined using a commercially available ADP-Glo™ Kinase Assay kit (Promega, Cat #V9102) according to the manufacturer's protocol.
as §1, with “full-length DYRK1A” for “human CLK1 (129-end)”, “E. Coli” for “Sf9 insect”, “#D09-10G). The DYRK substrate peptide (DYRKtide, sequence: […])” for “#C57-11G). Recombinant full length human MBP (expressed in E. Coli cells with an N-terminal GST tag.)”, “#D96-58).” for “#M42-54G).”, “DYRKtide” for “MBP protein”
Briefly, DYRK1A (3 nM) in the enzymatic buffer solutions (40 mM Tris, pH 7.5, 20 mM MgCl2, 0.1 mg/ml BSA, 50 μM DTT) were mixed with various concentrations of inhibitors (dissolved in 100% DMSO). These solutions were incubated for 30 minutes at 25° C., and subsequently a mixture of substrate peptide and ATP was added with the final peptide and ATP concentrations at 20 μM and 60 μM, respectively. The final reaction mixture of enzyme-substrate-ATP-compound was incubated for 60 minutes at 25° C.
as §3

T1 sequence (P49759 129-484 limits assumed): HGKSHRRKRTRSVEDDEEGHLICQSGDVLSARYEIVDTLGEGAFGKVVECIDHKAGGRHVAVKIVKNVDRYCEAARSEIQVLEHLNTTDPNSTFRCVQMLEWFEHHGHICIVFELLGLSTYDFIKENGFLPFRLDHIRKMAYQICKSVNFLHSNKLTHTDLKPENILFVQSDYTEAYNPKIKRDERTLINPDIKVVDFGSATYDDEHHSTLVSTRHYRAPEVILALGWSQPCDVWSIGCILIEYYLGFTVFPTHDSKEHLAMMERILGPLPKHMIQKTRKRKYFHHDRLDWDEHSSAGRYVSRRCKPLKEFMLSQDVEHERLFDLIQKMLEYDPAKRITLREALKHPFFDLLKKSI
T2 sequence (Q86Z02 156-555): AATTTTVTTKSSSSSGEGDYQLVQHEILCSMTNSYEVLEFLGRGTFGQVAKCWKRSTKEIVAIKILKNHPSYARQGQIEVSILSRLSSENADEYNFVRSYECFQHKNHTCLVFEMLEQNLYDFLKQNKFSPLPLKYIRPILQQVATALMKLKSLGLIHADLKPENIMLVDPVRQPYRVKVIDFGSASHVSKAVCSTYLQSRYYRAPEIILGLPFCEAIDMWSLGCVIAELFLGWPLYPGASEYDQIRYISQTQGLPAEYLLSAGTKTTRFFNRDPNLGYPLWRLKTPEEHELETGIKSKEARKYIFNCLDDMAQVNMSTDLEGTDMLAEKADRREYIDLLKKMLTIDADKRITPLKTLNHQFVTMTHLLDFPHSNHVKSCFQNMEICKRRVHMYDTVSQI

SMILES | IC50 (human CLK1) | IC50 (human HIPK1) | IC50 (human DYRK1A)
O=C1NC(Nc2ccccc2)=N/C1=C\c1ccc2scnc2c1 [Example 14, (Z)-5-(benzo[d]thiazol-5-ylmethylene)-2-(phenylamino)-3,5-dihydro-4H-imidazol-4-one] | > 10000 nM | > 10 µM | > 10000 nM
O=C1NC(Nc2ccccc2)=N/C1=C\c1cncs1 [Example 15, (Z)-2-(phenylamino)-5-(thiazol-5-ylmethylene)-3,5-dihydro-4H-imidazol-4-one] | > 10000 nM | > 10 µM | > 10000 nM
O=C1NC(Nc2ccccc2)=N/C1=C\c1ccc2nccnc2c1 [Example 16, (Z)-2-(phenylamino)-5-(quinoxalin-6-ylmethylene)-3,5-dihydro-4H-imidazol-4-one] | < 100 nM | 1 to 10 µM | < 100 nM
CN(C1=N/C(=C\c2ccc3c(c2)OC(F)(F)O3)C(=O)N1)c1ccccc1 [Example 17, (Z)-5-((2,2-difluorobenzo[d][1,3]dioxol-5-yl)methylene)-2-(methyl(phenyl)amino)-3,5-dihydro-4H-imidazol-4-one] | > 10000 nM | > 10 µM | > 10000 nM
CN(C1=N/C(=C\c2ccc3c(c2)OCO3)C(=O)N1)c1cccnc1 [Example 18, (Z)-5-(benzo[d][1,3]dioxol-5-ylmethylene)-2-(methyl(pyridin-3-yl)amino)-3,5-dihydro-4H-imidazol-4-one] | 100 to 1000 nM | > 10 µM | 100 to 1000 nM
CN(CC1CC1)C1=N/C(=C\c2ccc3c(c2)OCCO3)C(=O)N1 [Example 19, (Z)-2-((cyclopropylmethyl)(methyl)amino)-5-((2,3-dihydrobenzo[b][1,4]dioxin-6-yl)methylene)-3,5-di hydro-4H-imidazol-4-one] | 1000 to 10000 nM | > 10 µM | 100 to 1000 nM
CN(CCN1CCOCC1)C1=N/C(=C\c2ccc3c(c2)OCO3)C(=O)N1 [Example 20, (Z)-5-(benzo[d][1,3]dioxol-5-ylmethylene)-2-(methyl(2-morpholinoethyl)amino)-3,5-dihydro-4H-imidazol-4-one] | 100 to 1000 nM | > 10 µM | 100 to 1000 nM
COc1ccccc1N(C)C1=N/C(=C\c2ccc3c(c2)OCO3)C(=O)N1 [Example 21, (Z)-5-(benzo[d][1,3]dioxol-5-ylmethylene)-2-((2-methoxyphenyl)(methyl)amino)-3,5-dihydro-4H-imidazol-4-one] | 1000 to 10000 nM | > 10 µM | 100 to 1000 nM
O=C1NC(N(Cc2ccccc2)c2ccccc2)=N/C1=C\c1ccc2c(c1)OCO2 [Example 22, (Z)-5-(benzo[d][1,3]dioxol-5-ylmethylene)-2-(benzyl(phenyl)amino)-3,5-dihydro-4H-imidazol-4-one] | 1000 to 10000 nM | > 10 µM | > 10000 nM
CN(Cc1ccccc1)C1=N/C(=C\c2ccc3c(c2)OCO3)C(=O)N1 [Example 23, (Z)-5-(benzo[d][1,3]dioxol-5-ylmethylene)-2-(benzyl(methyl)amino)-3,5-dihydro-4H-imidazol-4-one] | 100 to 1000 nM | > 10 µM | 100 to 1000 nM
CN(C1=N/C(=C\c2ccc3ncsc3c2)C(=O)N1)c1ccc(Cl)cc1 [Example 24, (Z)-5-(benzo[d]thiazol-6-ylmethylene)-2-((4-chlorophenyl)(methyl)amino)-3,5-dihydro-4H-imidazol-4-one] | 100 to 1000 nM | > 10 µM | 100 to 1000 nM
O=C1NC(Nc2ccccc2)=N/C1=C\c1ccc2[nH]cnc2c1 [Example 26, (Z)-5-((1H-benzo[d]imidazol-5-yl)methylene)-2-(phenylamino)-3,5-dihydro-4H-imidazol-4-one] | < 100 nM | 0.1 to 1 µM | < 100 nM
O=C(O)CCN(C1=N/C(=C\c2ccc3c(c2)OCO3)C(=O)N1)c1ccccc1 [Example 27, (Z)-3-((4-(benzo[d][1,3]dioxol-5-ylmethylene)-5-oxo-4,5-dihydro-1H-imidazol-2-yl)(phenyl)amino)propanoic acid] | 1000 to 10000 nM | 1 to 10 µM | 1000 to 10000 nM
CN(Cc1ccccc1)C1=N/C(=C\c2ccc3ncsc3c2)C(=O)N1 [Example 28, (Z)-5-(benzo[d]thiazol-6-ylmethylene)-2-(benzyl(methyl)amino)-3,5-dihydro-4H-imidazol-4-one] | 100 to 1000 nM | 1 to 10 µM | 100 to 1000 nM
O=C1NC(NCCN2CCOCC2)=N/C1=C\c1ccc2ncsc2c1 [Example 29, (Z)-5-(benzo[d]thiazol-6-ylmethylene)-2-((2-morpholinoethyl)amino)-3,5-dihydro-4H-imidazol-4-one] | 100 to 1000 nM | 1 to 10 µM | 100 to 1000 nM
CN(C1=N/C(=C\c2ccc3[nH]cnc3c2)C(=O)N1)c1ccccc1 [Example 30, (Z)-5-((1H-benzo[d]imidazol-5-yl)methylene)-2-(methyl(phenyl)amino)-3,5-dihydro-4H-imidazol-4-one] | 100 to 1000 nM | > 10 µM | 1000 to 10000 nM
CN(CCN1CCOCC1)C1=N/C(=C\c2ccc3ncsc3c2)C(=O)N1 [Example 32, (Z)-5-(benzo[d]thiazol-6-ylmethylene)-2-(methyl(2-morpholinoethyl)amino)-3,5-dihydro-4H-imidazol-4-one] | 100 to 1000 nM | > 10 µM | 1000 to 10000 nM
